Test results: patent US20060223884A1, “Compounds and compositions for use in the prevention and treatment of obesity and related syndromes” (priority 2005, published 2006)
Where two headings read alike, the source gives them in different places.

What was measured:
[1] = Body weight of DIO mice, 4-hydroxyisoleucine and metformin alone and in combination (Example 6); type: in vivo, C57BU6 mice
Protocol: C57BU6 mice were received at 7-8 weeks of age and fed a high fat diet (60% of calories from fat) for 8 weeks. Fasted glycemia was checked and animals with readings between 200 and 220 mg/dL were included in the study. The animals were randomized based on their body weights and glycemia values into control and treatment groups (n=8). […] The control group received vehicle (water) alone. The animals were treated for 21 days. Body weight of the mice was measured on the first day of treatment and on days 3, 7, 10, 14, 17, and 21. All data are expressed as mean±SEM.

[2] = type: in vivo
From the text: The objective of this study was to evaluate the effect of chronic administration of 4-hydroxyisoleucine (4-OH, compound 14a) on food consumption and body weight gain of DIO-mice. Both parameters were monitored for 1 week prior to the commencement of treatment, then for the 77 days of treatment and for an additional 12 days post-treatment.
C57BL/6 mice were received at 7-8 weeks of age and fed a high fat diet (60% of calories from fat) for several weeks. A total of 32 animals were used in the study. The animals were distributed into 4 groups (3 treated, 1 control group, all on high fat diet). Each group was composed of 8 animals. The mice were randomized according to body weight and basal glycemia values following a 5±0.5 hour fasting period.
The test agent was dissolved in reverse osmosis water. 4-Hydroxyisoleucine was aliquoted and kept at 4° C. Control animals received reverse osmosis water twice daily (group 1). Mice from groups 2, 3 and 4 were treated twice daily with 4-hydroxyisoleucine (4-OH, compound 14a) at 100, 50, and 25 mg/kg, respectively. All groups were treated by oral gavage. Treatment commenced on Day 0 and ended on Day 77. Food consumption was measured daily and averaged on a weekly basis beginning one week before the start of treatment as shown in FIG. 15B. Similarly, food consumption was monitored during the treatment period and for 12 days after treatment was stopped as shown in FIGS. 15A and 15B.

[3] = cited from earlier work
[4] = Weight gain and epididymal fat of DIO-C57Bl/6 mice, 4-hydroxyisoleucine and Exendin-4 alone or in combination (Example 5); type: in vivo, C57BI/6 mice; details: s.c., 21 days
Protocol: Glycemic response was monitored by an Oral Glucose Tolerance Test (OGTT) performed on days 0, 7, 14, and 21 of treatment.
A total of 56 animals were used in the study. The animals were distributed into 7 groups (5 treated, 1 normal diet control, and 1 high fat diet control group). Each group was composed of 8 animals. […] For the three weeks of treatment, the test agents were dissolved in sterile saline for injection (USP). 4-Hydroxyisoleucine was kept at 4° C. (administration to groups 3, 4, and 7) while a frozen aliquot of Exendin-4 was thawed each dosing day for administration to groups 5, 6, and 7. Control animals received sterile saline, twice daily (groups 1 and 2). […] Animals from groups 5 and 6 received sterile saline as the AM treatment, while the PM treatment consisted of 0.05 and 0.01 mg/kg of Exendin-4, respectively. For Group 7, the AM treatment consisted of 50 mg/kg 4-OH only, while the PM treatment consisted of 0.01 mg/kg of Exendin-4+50 mg/kg of 4-OH. All groups were treated by subcutaneous injection.

[5] = Body weight gain in C57BU6 mice shifted to a high fat diet, analogs and isomers, 3 days (Example 9); type: in vivo; details: C57BU6 mice on high fat diet, 100 mg/kg twice daily oral gavage
Protocol: C57BU6 mice were received at 6-7 weeks of age and fed a standard commercial chow for 1 week (acclimation period). The animals were randomized based on their body weight values, into control and treatment groups (n=6). Then, animals were shifted to a high fat diet (60% of calories from fat) and treated twice daily by oral gavage with 4-hydroxyisoleucine (4-OH, compound 14a) or different analogs and isomers of 4-OH at the dose of 100 mg per kg of body weight for 3 days. The control group (Control HFD) received vehicle (water) alone and a group was kept under standard chow (Control Lean). Body weight of the mice was recorded daily. Two different experiments were run and the effect on body weight gain of selected analogs and isomers according to the invention is presented in FIG. 22A (Experiment 1) and FIG. 22B (Experiment 2).

[6] = Reversal of weight gain in obese wistar rats on HFHS diet (Example 11); type: in vivo; details: 100 mg/kg twice daily oral
From the text: The aim of this study was to evaluate the effect of chronic administration of 4-hydroxyisoleucine (4-OH, Compound 14a) on food consumption, tissue weight, and body weight gain of wistar obese rats.
A total of 30 animals were used in the study. The animals were acclimated for 1 week and fed standard chow. The animals were randomized into 3 groups of 10 animals each. Two groups were fed a high fat, high sucrose diet (HFHS), and 1 untreated control group was fed standard chow over a 28 day period. Animals were housed separately and food consumption was monitored daily.
In the following period of 28 days, the feeding regimen remained the same for the 3 groups; however, 1 group fed HFHS was treated with twice daily oral administration of 4-OH at 100 mg/kg per dose. For the 28 days of treatment, 4-OH was dissolved in reverse osmosis water, aliquoted, and kept at 4° C. Untreated animals received water twice daily.

[7] = obese wistar rats (28 days HFHS before treatment)

C[C@@H]([C@H](C)O)[C@H](N)C(=O)O [compound 14a, (2S,3R,4S)-4-Hydroxyisoleucine]
body weight as compared to vehicle-treated mice ([1]; DIO mice, 100 mg/kg twice daily oral, 21 days, only 4-OH significant (p<0.01 4-OH, p=0.27 metformin)): reduction of their body weight | body weight compared to control DIO mice, given alone ([1]; DIO mice, 4-OH 50 mg/kg or metformin 25 mg/kg twice daily oral, 21 days): no significant effect on body weight | efficacy in reducing body weight relative to metformin ([1]; DIO mouse model, conclusion of the study): as effective as mefformin | effect on weight gain ([2]; DIO mice, 100 mg/kg twice daily oral, Day 28 to Day 84): sustained and highly significant | tolerability of treatments ([2]; DIO mice, 25, 50 and 100 mg/kg twice daily, oral gavage, 77 days): well-tolerated | weight gain ([2]; DIO mice, 50 and 100 mg/kg twice daily oral, first three weeks of treatment): moderation of weight gain | food consumption ([2]; DIO mice, during the first week of treatment, paralleling the reduction in body weight gain): slight decrease in food consumption | body weight gain and food consumption after cessation of treatment ([2]; DIO mice, first week following cessation of treatment with 100 mg/kg): increase | insulinotropic and insulin sensitizing activities ([3]; Broca et al. 1999, 2000, 2004, WO 97/32577, WO 01/15689): insulinotropic and insulin sensitizing activities | antidyslipidemic activities ([3]; Narender et al. 2006): antidyslipidemic activities | body weight gain ([4]; 4-OH 50 mg/kg twice daily, Exendin-4 0.01 mg/kg (PM), alone or in combination): decrease in body weight gain | weight of epididymal fat ([4]; 4-OH 100 mg/kg, Exendin-4 0.01 mg/kg, combination 4-OH 50 mg/kg + Exendin-4 0.01 mg/kg): reduction of the weight of epididymal fat | body weight as compared to pre-treatment values (FIG. 22B, one experiment) [5]: reduced body weight of the mice as compared to pre-treatment values | body weight gain induced by the high fat diet [5]: reduced body weight gain induced by the high fat diet | epididymal and peri-renal adipose tissue [6, 7]: reduction of epididymal and pen-renal adipose tissue | muscle, brown fat, and organ weight [6, 7]: not affected | tolerability of treatment [6, 7]: well tolerated | weight gain [6, 7]: Moderation of weight gain | food consumption ([6]; obese wistar rats, 28 days, could not account for the differences in adiposity): reduction in food consumption
